What was measured:
AR = target: T1, AR (Homo sapiens, UniProt P10275, T878A); experiment: PSA(6.1 kb)-luciferase reporter assay in LNCaP cells (androgen-induced AR transcriptional activity); type: cell-based
T1 construct: LNCaP cells with endogenous AR; endogenous in cells; host or cells: LNCaP
T1 sequence (P10275 1-920 T878A): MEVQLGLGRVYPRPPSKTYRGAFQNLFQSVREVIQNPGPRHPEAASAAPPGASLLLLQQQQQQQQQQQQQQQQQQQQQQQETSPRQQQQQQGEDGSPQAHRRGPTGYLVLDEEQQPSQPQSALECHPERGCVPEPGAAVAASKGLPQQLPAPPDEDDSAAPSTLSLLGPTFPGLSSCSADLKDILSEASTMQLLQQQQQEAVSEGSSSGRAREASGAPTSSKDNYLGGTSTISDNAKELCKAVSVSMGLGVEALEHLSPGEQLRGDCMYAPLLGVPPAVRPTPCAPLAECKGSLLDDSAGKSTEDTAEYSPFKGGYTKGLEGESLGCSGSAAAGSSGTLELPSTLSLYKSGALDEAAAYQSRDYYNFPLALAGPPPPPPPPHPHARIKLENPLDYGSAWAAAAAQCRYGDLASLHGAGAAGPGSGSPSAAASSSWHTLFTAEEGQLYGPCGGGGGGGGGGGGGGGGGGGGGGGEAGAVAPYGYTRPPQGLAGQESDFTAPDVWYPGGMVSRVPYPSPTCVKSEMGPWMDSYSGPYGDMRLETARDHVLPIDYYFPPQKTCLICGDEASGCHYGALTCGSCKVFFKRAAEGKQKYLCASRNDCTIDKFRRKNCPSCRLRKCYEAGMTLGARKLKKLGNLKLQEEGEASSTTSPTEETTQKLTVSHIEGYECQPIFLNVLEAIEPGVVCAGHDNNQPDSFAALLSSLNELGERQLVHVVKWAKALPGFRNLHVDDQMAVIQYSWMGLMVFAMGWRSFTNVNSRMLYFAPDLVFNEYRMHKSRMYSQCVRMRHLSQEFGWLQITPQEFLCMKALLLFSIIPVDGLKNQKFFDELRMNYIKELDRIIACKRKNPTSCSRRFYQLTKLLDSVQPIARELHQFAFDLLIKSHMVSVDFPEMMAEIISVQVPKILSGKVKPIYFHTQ
Method: The PSA-luciferase (6.1 kb) reporter contains functional AREs to which AR binds in response to androgen to induce luciferase activity. LNCaP cells were transfected with the PSA(6.1 kb)-luciferase reporter for 24 h, and then treated with indicated concentration of 8d (also referred as EPI-iodide or iodinated EPI) with synthetic androgen, R1881 (1 nM) for 24 h. After 24 h of incubation with R1881, the cells were harvested, and relative luciferase activities were determined (FIG. 1A). To determine the IC50, treatments were normalized to the predicted maximal activity induction (in the absence of test compounds, vehicle only) (FIG. 1B).
To measure effect on AR, after the LNCaP cells were transfected with the PSA(6.1 kb)-luciferase reporter for 24 h, they were then treated with DMSO, 5 μM MDV3100, 25 μM Z (also referred to as EPI-002 or EPI), or 1.9 μM 8d with or without 1 nM R1881 for 24 h (FIG. 2A).
LNCaP cells were transiently transfected with PSA (6.1 kb)-luciferase for 24 h prior to pre-treatment with compounds of the invention (e.g., compounds 9d, 10d, 11d) ranging in concentration from 62.5 ng/ml to 1.5 ug/ml for 1 hour before the addition of vehicle, or synthetic androgen, R1881 (1 nM) to induce luciferase production. After 24 h of incubation with R1881, the cells were harvested, and relative luciferase activities were determined. To determine the IC50, treatments were normalized to the predicted maximal activity induction (in the absence of test compounds, vehicle only) (FIG. 1B).

[1] = target: T2, progesterone receptor-beta (PRβ) (Homo sapiens, UniProt P06401); experiment: PRE-luciferase reporter assay in LNCaP cells cotransfected with full-length human PRβ; type: cell-based; settings: 1.9 μM 8d, 10 nM progesterone, 24 h, LNCaP cells (FIG. 2B)
T2 construct: expression plasmids for full-length human PRβ; expressed in transfected cells; host or cells: LNCaP
T2 sequence (P06401 1-933): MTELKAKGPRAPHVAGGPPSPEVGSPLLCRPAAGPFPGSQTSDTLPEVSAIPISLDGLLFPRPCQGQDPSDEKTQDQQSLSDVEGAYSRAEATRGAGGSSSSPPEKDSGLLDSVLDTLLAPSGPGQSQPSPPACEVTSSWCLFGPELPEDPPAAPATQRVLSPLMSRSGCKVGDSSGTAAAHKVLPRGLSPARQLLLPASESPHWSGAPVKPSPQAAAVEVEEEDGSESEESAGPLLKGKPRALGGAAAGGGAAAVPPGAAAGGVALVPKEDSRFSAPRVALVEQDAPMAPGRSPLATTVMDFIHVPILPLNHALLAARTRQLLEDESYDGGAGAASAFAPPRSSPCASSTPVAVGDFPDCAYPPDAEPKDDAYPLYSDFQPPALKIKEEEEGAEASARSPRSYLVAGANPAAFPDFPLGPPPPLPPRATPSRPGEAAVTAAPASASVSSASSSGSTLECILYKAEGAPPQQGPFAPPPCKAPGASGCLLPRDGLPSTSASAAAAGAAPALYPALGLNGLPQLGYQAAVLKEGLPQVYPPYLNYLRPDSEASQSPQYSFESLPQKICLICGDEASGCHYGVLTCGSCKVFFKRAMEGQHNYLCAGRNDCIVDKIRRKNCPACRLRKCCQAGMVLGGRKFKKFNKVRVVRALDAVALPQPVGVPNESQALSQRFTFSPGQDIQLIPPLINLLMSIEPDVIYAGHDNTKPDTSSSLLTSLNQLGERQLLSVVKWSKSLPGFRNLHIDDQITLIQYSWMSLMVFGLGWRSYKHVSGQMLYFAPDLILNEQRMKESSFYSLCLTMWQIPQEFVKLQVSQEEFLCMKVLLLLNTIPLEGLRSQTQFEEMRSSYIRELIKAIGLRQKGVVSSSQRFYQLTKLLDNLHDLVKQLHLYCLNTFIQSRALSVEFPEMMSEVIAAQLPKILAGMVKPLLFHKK
Method: To assess specificity for the AR, parallel experiments were performed in LNCaP cells with endogenous AR and ectopic expression of other closely related human hormone receptors such as the progesterone receptor-beta (PRβ), glucocorticoid receptor (GR) and estrogen receptor-α (ER).
LNCaP cells were cotransfected with the expression plasmids for full-length human PRβ and the relative reporter (PRE-luciferase) for 24 h, and then treated with DMSO, 5 μM MDV3100, 25 μM Z, or 1.9 μM 8d with or without 10 nM progesterone for 24 h (FIG. 2B). Compound 8d had no effect on the transcriptional activity of closely related PRβ.

androgen-induced PSA luciferase activity (AR; 1.9 μM 8d, 1 nM R1881, 24 h, LNCaP cells (FIG. 2A)): strongly inhibited
IC50 (AR; LNCaP cells, PSA(6.1 kb)-luciferase, R1881 1 nM 24 h, representative experiment, read-out: IC50 for inhibition of AR transcriptional activity): 1.17 ± 0.22 µM
transcriptional activity of PRβ (PRE-luciferase) [1]: no effect
SMILES: CC(C)(c1ccc(OC[C@H](O)CO)cc1)c1ccc(OC[C@H](O)CCl)c(I)c1 [Compound 8d, (R)-3-(4-(2-(4-((S)-3-chloro-2-hydroxypropoxy)-3-iodophenyl)propan-2-yl)phenoxy)propane-1,2-diol]

Reference: patent US9375496B2, “Halogenated compounds for cancer imaging and treatment and methods for their use” (The University of British Columbia, priority 2013, dated 2016)
